ChEMBL document CHEMBL3885861, “Open TG-GATES”

Species: Rattus norvegicus
Experiment: Open TG-GATES - Regimen: Single
Assay type: toxicity, organism-based, Sprague-Dawley
Design: regimen Single, gender Male, age 6 weeks
Conditions: in vivo, po, 1000 mg/kg, route gavage, dose level High; for APTT / Bas / Eos / Fbg / Hb / Ht / Lym / MCH / MCHC / MCV / Mono / Neu / PT / Plat / RBC / Ret / WBC: tissue Blood; for KIDNEY_L / KIDNEY_R / KIDNEY_TOTAL: tissue Kidney; for LIVER: tissue Liver; for A/G / ALP / ALT / AST / BUN / CRE / Ca / Cl / DBIL / GLC / IP / K / LDH / Na / PL / RALB / TBIL / TC / TG / TP / gamma-GTP: tissue Plasma

COC1=CC(=O)C[C@@H](C)[C@]12Oc1c(Cl)c(OC)cc(OC)c1C2=O [GRISEOFULVIN]
TERMINAL_BW (9 h): 207.4 g
APTT (9 h): 17.9 s
Bas (9 h): 0%
Eos (9 h): 0.8%
Fbg (9 h): 202.4 mg/dL
Hb (9 h): 12.4 g/dL
Ht (9 h): 36.1%
Lym (9 h): 75.2%
MCH (9 h): 21.5 pg
MCHC (9 h): 34.3%
MCV (9 h): 62.8 fL
Mono (9 h): 2.2%
Neu (9 h): 21.6%
PT (9 h): 13.9 s
Plat (9 h): 113.3 x10_4/uL
RBC (9 h): 575.8 x10_4/ul
Ret (9 h): 7.7%
WBC (9 h): 71.8 x10_2/uL
KIDNEY_L (9 h): 0.9 g
KIDNEY_R (9 h): 1 g
KIDNEY_TOTAL (9 h): 1.9 g
LIVER (9 h): 8.4 g
A/G (9 h): 1.8
ALP (9 h): 1031 IU/L
ALT (9 h): 31.4 IU/L
AST (9 h): 67.6 IU/L
BUN (9 h): 10.8 mg/dL
CRE (9 h): 0.3 mg/dL
Ca (9 h): 10.8 mg/dL
Cl (9 h): 104.4 meq/L
DBIL (9 h): 0.07 mg/dL
GLC (9 h): 186.4 mg/dL
IP (9 h): 10.1 mg/dL
K (9 h): 3.9 meq/L
LDH (9 h): 153.2 IU/L
Na (9 h): 142.2 meq/L
PL (9 h): 134.2 mg/dL
RALB (9 h): 3.5 g/dL
TBIL (9 h): 0.1 mg/dL
TC (9 h): 74.2 mg/dL
TG (9 h): 26.8 mg/dL
TP (9 h): 5.5 g/dL
gamma-GTP (9 h): 1.2 IU/L
TERMINAL_BW (24 h): 222.6 g
APTT (24 h): 18.9 s
Bas (24 h): 0%
Eos (24 h): 0.8%
Fbg (24 h): 206.4 mg/dL
Hb (24 h): 13.1 g/dL
Ht (24 h): 39.3%
Lym (24 h): 79.2%
MCH (24 h): 21.9 pg
MCHC (24 h): 33.4%
MCV (24 h): 65.5 fL
Mono (24 h): 2.6%
Neu (24 h): 16.8%
PT (24 h): 13 s
Plat (24 h): 123.4 x10_4/uL
RBC (24 h): 600.4 x10_4/ul
Ret (24 h): 8%
WBC (24 h): 97.5 x10_2/uL
KIDNEY_L (24 h): 1 g
KIDNEY_R (24 h): 1 g
KIDNEY_TOTAL (24 h): 2 g
LIVER (24 h): 10.5 g
A/G (24 h): 1.6
ALP (24 h): 1124.8 IU/L
ALT (24 h): 39.8 IU/L
AST (24 h): 69.8 IU/L
BUN (24 h): 13.2 mg/dL
CRE (24 h): 0.4 mg/dL
Ca (24 h): 10.9 mg/dL
Cl (24 h): 104 meq/L
DBIL (24 h): 0.1 mg/dL
GLC (24 h): 212.4 mg/dL
IP (24 h): 8.5 mg/dL
K (24 h): 4 meq/L
LDH (24 h): 148.6 IU/L
Na (24 h): 141 meq/L
PL (24 h): 153 mg/dL
RALB (24 h): 3.3 g/dL
TBIL (24 h): 0.2 mg/dL
TC (24 h): 88 mg/dL
TG (24 h): 88.4 mg/dL
TP (24 h): 5.4 g/dL
gamma-GTP (24 h): 1.4 IU/L
